Source: ChEMBL document CHEMBL3865807, “Syntheses and photodynamic activity of some glucose-conjugated BODIPY dyes” (Eur J Med Chem, 2016)
The source made the active and inactive calls. The calls are words filed in the database; no cut-off is given here.

Tests used:
[1] = Drug uptake in human A549 cells assessed as mean fluorescence intensity at 2.5 uM after 16 hrs by flow cytometry (reference value: 5.4 +/- 1.5); type: ADME, cell-based; settings: a549, 16 h
Bos taurus = organism: Bos taurus; assay: Binding affinity to calf thymus duplex DNA assessed as decrease in intensities of maximum absorption at 50 uM by spectrophotometric titration analysis

In the case of CCC1=C(C)C2=C(C)c3c(C)c(CC)c(C)n3[B-](F)(F)[N+]2=C1/C=C/c1ccc(O[C@H]2O[C@H](CO)[C@@H](O)[C@H](O)[C@H]2O)cc1, the Flu intensity [1] is reported as 41.6 to 52.5 and the Activity (Bos taurus) is reported as “Active”.
